The source of these data is PMC11767344, “Entire Encapsulation of Thymopentin by Extended Biphen[3]arene Carboxylate for Improving Plasma Stability” (Molecules, 2025).

A short description of series [1]: Plasma stability of thymopentin by HPLC. Type of series: in vitro ADME. Conditions: thymopentin 1.0 mM, equal amount of rat plasma, 37 °C, HPLC-UV 210 nm. The method, then: To test the above hypothesis, we compared the plasma stability of free thymopentin, a host–guest mixture of thymopentin/ExBP3C, thymopentin/CP5A, and thymopentin/cucurbit[7]uril (CB[7]) using high-performance liquid chromatography (HPLC). According to a previously reported method, the above samples (all containing 1.00 mM of thymopentin) were dissolved in deionized water and then incubated with an equal amount of rat plasma at 37 °C. At predetermined intervals, 100 μL of solution in various groups were withdrawn and quenched with 100 μL of acetonitrile containing 0.1% trifluoroacetic acid (TFA). HPLC analysis was performed on an LC-10AT VP Plus liquid chromatography system with an SPD-10 A VP Plus UV–Vis detector operating at 210 nm and quantified using Shimadzu LC solution Lite. The column used was a C18 reverse-phase column, and the mobile phase was composed of solvent A (water containing 0.1% TFA) and solvent B (70% acetonitrile and 0.1% TFA); the injection volume and flow rate were respectively set as 20 μL and 1.00 mL∙min^−1. The appropriate calibration curve was first derived to calculate the concentration of thymopentin based on the above-mentioned procedure (Figure 5a). […]
Figure 5 (a) Calibration curve obtained by HPLC and used to calculate thymopentin concentration in plasma stability. […] (2.0 mM) as determined by HPLC.

Series [2] relates to mouse fibroblast cell line (L929). Description: Cytotoxicity, Cell Counting Kit-8. Type of series: cell-based. Conditions: 24 h, 37 °C, 5% CO2, CCK-8, 450 nm; even at relatively high concentrations; mean ± SD, n = 5. The method, then:
(§1) In practical biomedical applications, the safety profiles of supplementary materials are of great concern. Here we preliminarily investigated the cytotoxicity of ExBP3C on a mouse fibroblast cell line (L929) and its hemolytic activity toward rabbit red blood cells (rRBCs). ExBP3C was first dissolved in deionized water and diluted to the required concentrations. For cytotoxicity studies, ExBP3C samples were added to L929 cell-containing wells, which were incubated at 37 °C under 5% CO2 for 24 h, and then the Cell Counting Kit-8 reagent was added into each well to stain for 30 min. […] For the hemolysis assay, ExBP3C samples were added to an erythrocyte suspension at 37 °C for 24 h. After that, the suspension was centrifuged at 1000 rpm for 10 min, and 100 μL of supernatant was transferred to a 96-well plate for measurement by a plate reader. […] On the basis of experimental results and prior studies, we concluded that the administration of ExBP3C at the above examination range was relatively nontoxic on a cellular level.
(§2) Figure 6 (a) Relative viability of mouse fibroblast cell line (L929) after treatment with ExBP3C for 24 h at the indicated concentrations (mean ± SD, n = 5). (b) Hemolysis of ExBP3C toward rabbit red blood cells (rRBCs) after 24 h of incubation time, and the hemolytic rate of rRBCs incubated with 1% Triton X-100 was defined as 100% (mean ± SD, n = 3).

For the next series, the target named is T1, thymopentin (Homo sapiens, UniProt P42166).
T1 construct: purchased
Description: Isothermal titration calorimetry (ITC) of thymopentin into ExBP3C. It counts as binding. Conditions: deionized water, 25 °C, ExBP3C 40 μM in cell, thymopentin 500 μM in syringe. The method, then: An isothermal microcalorimetric titration (ITC) experiment was further carried out in deionized water at 25 °C on a PEAQ-ITC to quantitatively assess the binding affinity and related thermodynamic parameters. A 300 μL solution of ExBP3C was placed in the sample cell at a concentration of 40 μM, and 70 μL of a solution of thymopentin (500 μM) was placed in the injection syringe. The titration was conducted by titration of 18 drops of thymopentin to the ExBP3C solution, and all solutions were degassed prior to titration. […] It should be noted that the binding stoichiometry between ExBP3C and thymopentin was determined to be 0.956 ± 0.011, which was very close to 1:1 and consistent with the above entire encapsulation mode (Figure 3). A larger interaction area of thymopentin/ExBP3C would facilitate the production of a stronger binding affinity.
Figure 3 ITC isotherm for the titration of thymopentin/ExBP3C in aqueous solution at room temperature (top: raw data; bottom: net reaction heat obtained from integration of calorimetric traces).
On the technique in general: In ITC the heat of successive injections is recorded.

Series [3] deals with rabbit red blood cells (rRBCs). Description: Hemolysis assay. To be noted: 320 μM, 37 °C, 24 h; 1% Triton X-100 defined as 100%; mean ± SD, n = 3. Type of series: cell-based. The method, then: as §1, §2

Ends that are not written are not given here. Bounds are passed on as bounds.

For RKDVY [thymopentin], the “Residual thymopentin after exposure to rat plasma, in words” value in series [1] (30 min) is “undetectable”. Further, the “Time until thymopentin became undetectable” value in series [1] (alone or with macrocycle 2.0 mM) was at most 30 min.

As for “extended biphen[3]arene carboxylate [ExBP3C]”, the “Cytotoxicity against L929 cells, in words” value in series [2] is reported as “minimal cytotoxicity”. The “binding stoichiometry, N (sites)” value on thymopentin is recorded as 0.956 ± 0.011. In series [3], this substance came in with a Relative hemolysis of 1.92%.
